The values that follow come from ChEMBL document CHEMBL5046266, “Synthesis and Evaluation of Structurally Diverse C-2-Substituted Thienopyrimidine-Based Inhibitors of the Human Geranylgeranyl Pyrophosphate Synthase” (J Med Chem, 2022).

The target in test [1] is T1, Geranylgeranyl pyrophosphate synthase (Homo sapiens, UniProt O95749).
T1 sequence (O95749 whole entry): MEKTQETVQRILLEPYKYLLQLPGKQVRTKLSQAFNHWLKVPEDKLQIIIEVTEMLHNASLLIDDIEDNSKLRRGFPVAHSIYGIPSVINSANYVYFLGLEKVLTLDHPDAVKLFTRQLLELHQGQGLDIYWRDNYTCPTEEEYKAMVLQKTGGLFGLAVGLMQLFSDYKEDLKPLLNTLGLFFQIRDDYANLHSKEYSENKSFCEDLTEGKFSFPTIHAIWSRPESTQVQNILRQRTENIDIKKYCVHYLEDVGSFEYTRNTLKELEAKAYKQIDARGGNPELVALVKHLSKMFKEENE

Another test has as its system RPMI-8226. The test can be described thus: cells. The conditions noted are these: Homo sapiens, RPMI-8226, 72 h.
Test [2] concerns the target T2, Farnesyl pyrophosphate synthase (Homo sapiens) (UniProt P14324).
T2 sequence (whole entry): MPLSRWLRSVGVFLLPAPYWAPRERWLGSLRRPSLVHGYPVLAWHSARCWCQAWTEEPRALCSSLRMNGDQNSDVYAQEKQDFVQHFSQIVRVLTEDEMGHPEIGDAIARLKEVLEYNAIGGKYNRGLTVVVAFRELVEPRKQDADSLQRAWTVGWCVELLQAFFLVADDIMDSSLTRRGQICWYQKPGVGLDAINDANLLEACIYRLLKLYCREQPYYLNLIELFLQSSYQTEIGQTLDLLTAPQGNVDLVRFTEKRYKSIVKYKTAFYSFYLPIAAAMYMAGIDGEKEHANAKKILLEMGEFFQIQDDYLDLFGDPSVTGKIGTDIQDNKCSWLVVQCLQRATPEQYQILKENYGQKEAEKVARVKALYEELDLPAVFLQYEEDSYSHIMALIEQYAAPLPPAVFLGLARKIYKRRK
The test can be described thus: Inhibition of human FPPS expressed in Escherichia coli BL21 (DE3) at 1 uM preincubated for 10 mins in presence compound relative to control.

Some results are limits rather than exact numbers.

Turning to `COc1ccc(S(=O)(=O)Nc2cccc(-c3nc(NC(P(=O)(O)O)P(=O)(O)O)c4ccsc4n3)c2)cc1F`, in test [1], the IC50 (as a rule, the point on the concentration scale where inhibition reaches its midpoint) amounted to 24 nM. In addition, the concentration giving a half-maximal response (EC50) (as a rule, the concentration needed to bring the measured effect to its halfway point) with RPMI-8226 was 4700 nM. For the same compound, the inhibition (usually how much of the control response was suppressed) in test [2] came to 40%.
In turn, `Cc1ccc(NC(=O)c2cccc(-c3nc(NC(P(=O)(O)O)P(=O)(O)O)c4ccsc4n3)c2)cc1F` gave an IC50 in test [1] of 31 nM. Further, in the test on RPMI-8226, the response was half-maximal at 130 nM (EC50). Besides, the inhibition in test [2] was found to be 28%.
Take `O=C(Nc1cccc(-c2nc(NC(P(=O)(O)O)P(=O)(O)O)c3ccsc3n2)c1)c1ccc(C(F)(F)F)cc1`: the midpoint of inhibition in test [1], the IC50, lay at 18 nM. Besides, in the test on RPMI-8226, the EC50 worked out at 710 nM. This compound registered an inhibition in test [2] of 40%.
The compound `Cc1ccc(S(=O)(=O)Nc2cccc(-c3nc(NC(P(=O)(O)O)P(=O)(O)O)c4ccsc4n3)c2)cc1F` returned an IC50 in test [1] of 23 nM. The compound further displayed an EC50 in the test on RPMI-8226 of 7800 nM. In test [2], this compound registered an inhibition of 30%.
`O=C(Cc1cccnc1)Nc1cccc(-c2nc(NC(P(=O)(O)O)P(=O)(O)O)c3ccsc3n2)c1` displayed a half-maximal inhibitory concentration (IC50) in test [1] of 71 nM. The EC50 in the test on RPMI-8226 worked out at 1200 nM. This compound also yielded an inhibition in test [2] of 60%.
In test [1], `COc1ccc(NS(=O)(=O)c2cccc(-c3nc(NC(P(=O)(O)O)P(=O)(O)O)c4ccsc4n3)c2)cc1F` came in with a half-maximal inhibitory concentration (IC50) of 23 nM. In addition, the EC50 in the test with RPMI-8226 is 5000 nM. The same compound gave an inhibition in test [2] of 25%.
The corresponding values for `O=C(Nc1ccc(F)cc1)Nc1cccc(-c2nc(NC(P(=O)(O)O)P(=O)(O)O)c3ccsc3n2)c1` are 41 nM, 4100 nM and 90%.
On to `O=C(Cc1ccccc1)Nc1cccc(-c2nc(NC(P(=O)(O)O)P(=O)(O)O)c3ccsc3n2)c1`, for which, in test [1], half-maximal inhibition (IC50) was put at 23 nM. Besides, in the test with RPMI-8226, the response was half-maximal at 740 nM (EC50). The inhibition in test [2] was determined as 55%.
Take `COc1ccc(C(=O)Nc2cccc(-c3nc(NC(P(=O)(O)O)P(=O)(O)O)c4ccsc4n3)c2)cc1F`: in test [1], half-maximal inhibition (IC50) was put at 29 nM. In the test with RPMI-8226, this compound showed a concentration for a half-maximal effect (EC50) of 460 nM. This compound had an inhibition in test [2] of 60%.
The corresponding values for `Cc1ccc(C(=O)Nc2cccc(-c3nc(NC(P(=O)(O)O)P(=O)(O)O)c4ccsc4n3)c2)cc1F` are 21 nM, 290 nM and 35%.
In test [1], `O=P(O)(O)C(Nc1nc(-c2ccccc2)nc2sccc12)P(=O)(O)O` had an IC50 of 37 nM. In addition, the EC50 with RPMI-8226 is more than 10000 nM.
As for `O=C(Nc1cccc(-c2nc(NC(P(=O)(O)O)P(=O)(O)O)c3ccsc3n2)c1)c1ccc(F)cc1`, the IC50 in test [1] worked out at 25 nM. In addition, the inhibition in test [2] was determined as 30%.
In turn, `CC(C)O[C@@H](C(=O)Nc1cccc(-c2nc(NC(P(=O)(O)O)P(=O)(O)O)c3ccsc3n2)c1)c1ccccc1` displayed an IC50 in test [1] of 23 nM. The compound also came in with a half-maximal effective concentration (EC50) in the test on RPMI-8226 of 910 nM.
In the case of `O=C(Nc1cccc(-c2nc(NC(P(=O)(O)O)P(=O)(O)O)c3ccsc3n2)c1)c1ccccc1`, in test [1], the 50% inhibitory concentration (IC50) worked out at 19 nM. The compound further registered an EC50 in the test on RPMI-8226 of more than 500 nM. This compound also displayed an inhibition in test [2] of 40%.
For `CC(C)O[C@H](C(=O)Nc1cccc(-c2nc(NC(P(=O)(O)O)P(=O)(O)O)c3ccsc3n2)c1)c1ccccc1`, in test [1], inhibition was half-maximal at 21 nM (IC50). For the same compound, the concentration for a half-maximal effect (EC50) in the test with RPMI-8226 is 135 nM. Moreover, the inhibition in test [2] turned out to be 35%.
In the case of `COc1ccc(NC(=O)Nc2cccc(-c3nc(NC(P(=O)(O)O)P(=O)(O)O)c4ccsc4n3)c2)cc1F`, the midpoint of inhibition in test [1], the IC50, lay at 34 nM. The response with RPMI-8226 was half-maximal at 1300 nM (EC50).
Consider `Cc1ccc(NC(=O)c2cccc(-c3nc(NC(P(=O)(O)O)P(=O)(O)O)c4ccsc4n3)c2)cc1Br`, for which the IC50 in test [1] worked out at 15 nM. The compound also had an EC50 in the test with RPMI-8226 of 161 nM. In test [2], this compound yielded an inhibition of 12%.
With `O=C(Nc1cccc(-c2nc(NC(P(=O)(O)O)P(=O)(O)O)c3ccsc3n2)c1)c1ccc(C(F)(F)F)cn1`, it took 52 nM to reach half-maximal inhibition in test [1] (IC50). The same compound returned a 50% effective concentration (EC50) in the test with RPMI-8226 of 21300 nM. Also, in test [2], the inhibition was 60%.
Turning to `CO[C@H](C(=O)Nc1cccc(-c2nc(NC(P(=O)(O)O)P(=O)(O)O)c3ccsc3n2)c1)c1ccccc1`, the IC50 in test [1] turned out to be 38 nM. Moreover, the concentration for a half-maximal effect (EC50) in the test on RPMI-8226 turned out to be 390 nM. In test [2], this compound showed an inhibition of 55%.
As for `O=C(Nc1ccccc1)c1cccc(-c2nc(NC(P(=O)(O)O)P(=O)(O)O)c3ccsc3n2)c1`, in test [1], the IC50 stood at 41 nM.
